From US10336707B2, “Heterocyclic derivatives modulating activity of certain protein kinases” (EUDENDRON S.R.L., priority 2014, dated 2019)
pIC50: −log10 of the molar value.

Assays:
[1] = target: T1, ALK wild-type (GST-His-tag) (Homo sapiens, UniProt Q9UM73); assay: Radiometric protein kinase assay (33PanQuinase Activity Assay), ALK wild-type; format: biochemical; settings: ATP 0.3 μM
T1 construct: either as full-length or enzymatically active fragments; purchased ProQinase GmbH (Freiburg, Germany)
Method: (§1) A proprietary radiometric protein kinase assay (33PanQuinase® Activity Assay) developed by ProQuinase GmbH (Freiburg, Germany) was used for measuring the kinase activity of selected protein kinases. All assays were performed in FlashPlates™ wells 96 Perkin Elmer (Boston, Mass., USA) in a reaction volume of 50 μl. The reaction mixture was obtained in 4 steps in the following order: • 1. 10 μl of a solution of non-radioactive ATP in water; • 2. 25 μl of assay buffer/[γ-^33P]-ATP mixture • 3. 5 μl of test sample in 10% DMSO • 4. 10 μl of enzyme/substrate mixture
(§2) All protein kinases provided by ProQinase were expressed in Sf9 insect cells or in E. coli as recombinant GST-fusion proteins or His-tagged proteins, either as full-length or enzymatically active fragments. […] Kinases from external vendors (CAR=Carna Biosciences Inc.; INV=Life Technologies (Invitrogen Corporation); MIL=Merck-Millipore (Millipore Corporation), were expressed, purified and quality-controlled by virtue of the vendors readings.
(§3) A stock solution of compound of formula (I) was diluted to 5×10-04M/100% DMSO. […] Incorporation of 33Pi (counting of “cpm”) was determined with a microplate scintillation counter (Microbeta, Wallac). […]
(§4) Based on each 10 corresponding residual activities, IC50 values were calculated using Prism 5.04 for Windows (Graphpad, San Diego, Calif.). […]

[2] = target: T2, TRK-B (Homo sapiens, UniProt Q16620); assay: Radiometric protein kinase assay (33PanQuinase Activity Assay), TRK-B; format: biochemical; settings: ATP 0.3 μM
T2 construct: either as full-length or enzymatically active fragments; purchased ProQinase GmbH (Freiburg, Germany)
Method: as §1, §2, §3, §4

[3] = target: T3, ALK F1174L (GST-His-tag) (Homo sapiens, UniProt Q9UM73, F1174L); assay: Radiometric protein kinase assay (33PanQuinase Activity Assay), ALK F1174L; format: biochemical; settings: ATP 0.3 μM
T3 construct: either as full-length or enzymatically active fragments; purchased ProQinase GmbH (Freiburg, Germany)
Method: as §1, §2, §3, §4

[4] = test system: Karpas 299 lymphoma cell line positive for the oncogenic fusion protein NPM-ALK; assay: Tritiated thymidine uptake cell proliferation assay, Karpas 299; format: cell-based; settings: Homo sapiens
[5] = target: T4, BaF3 NPM-ALK WT (Homo sapiens, UniProt Q9UM73); assay: Tritiated thymidine uptake cell proliferation assay, BaF3 NPM-ALK WT; format: cell-based, murine; settings: cell line BaF3 NPM-ALK WT; read-out: IC50 of cellular proliferation, BaF3 NPM-ALK WT
T4 construct: fused on or other part: P06748 (Nucleophosmin)
Method: (§5) Method: Tritiated Thymidine Uptake Cell Proliferation Assay
(§6) The following procedure was used with parent untransformed BaF3 cells, BaF3 cells transformed with the oncogenic fusion protein NPM/ALK, NPM/ALK positive SUDHL-1 cells, NPM/ALK positive SUPM2, ALK-negative HL60 cells, NPM/ALK positive KARPAS-299 cells. The parent untransformed BaF3 cells or Alk-negative HL60 cells are used as controls. Cells were seeded in U-bottomed 96-well plates at 10000 cells/well in a volume of 100 μl in supplemented medium. In the case of the parent untransformed BaF3 cells, the medium was supplemented with IL-3. Serial dilutions of inhibitors were added to the appropriate wells and volumes adjusted to 200 μl. Controls were treated with the equivalent volume of vehicle, DMSO, alone. Plates were incubated at 37° C. for 72 h. 3[H]-thymidine (1 μCi/well) was added for the last 16 h of incubation. Cells were harvested on to paper filters and 3[H]-thymidine incorporation was measured using a scintillation counter (1430 MicroBeta, Wallac, Turku, Finland). The 50% inhibitory concentration (IC50) was defined as the concentration of inhibitor, expressed in nanomolar units, that gave a 50% decrease in 3[H]-thymidine uptake compared with controls.
In Table 4 are reported the IC50 of cellular proliferation assays of example 3 versus ALK positive, mutated and negative cell lines.

[6] = test system: ALK-negative HL60 cells; assay: Tritiated thymidine uptake cell proliferation assay, HL60 (ALK-negative control); format: cell-based; settings: Homo sapiens, HL-60; cell line HL60, ALK negative control; read-out: IC50 of cellular proliferation, HL60
Method: as §5, §6
Potentially toxic effects were assessed using parent untransformed BaF3 cells or ALK negative HL60 cells. […]

T1 sequence (Q9UM73 19-1620): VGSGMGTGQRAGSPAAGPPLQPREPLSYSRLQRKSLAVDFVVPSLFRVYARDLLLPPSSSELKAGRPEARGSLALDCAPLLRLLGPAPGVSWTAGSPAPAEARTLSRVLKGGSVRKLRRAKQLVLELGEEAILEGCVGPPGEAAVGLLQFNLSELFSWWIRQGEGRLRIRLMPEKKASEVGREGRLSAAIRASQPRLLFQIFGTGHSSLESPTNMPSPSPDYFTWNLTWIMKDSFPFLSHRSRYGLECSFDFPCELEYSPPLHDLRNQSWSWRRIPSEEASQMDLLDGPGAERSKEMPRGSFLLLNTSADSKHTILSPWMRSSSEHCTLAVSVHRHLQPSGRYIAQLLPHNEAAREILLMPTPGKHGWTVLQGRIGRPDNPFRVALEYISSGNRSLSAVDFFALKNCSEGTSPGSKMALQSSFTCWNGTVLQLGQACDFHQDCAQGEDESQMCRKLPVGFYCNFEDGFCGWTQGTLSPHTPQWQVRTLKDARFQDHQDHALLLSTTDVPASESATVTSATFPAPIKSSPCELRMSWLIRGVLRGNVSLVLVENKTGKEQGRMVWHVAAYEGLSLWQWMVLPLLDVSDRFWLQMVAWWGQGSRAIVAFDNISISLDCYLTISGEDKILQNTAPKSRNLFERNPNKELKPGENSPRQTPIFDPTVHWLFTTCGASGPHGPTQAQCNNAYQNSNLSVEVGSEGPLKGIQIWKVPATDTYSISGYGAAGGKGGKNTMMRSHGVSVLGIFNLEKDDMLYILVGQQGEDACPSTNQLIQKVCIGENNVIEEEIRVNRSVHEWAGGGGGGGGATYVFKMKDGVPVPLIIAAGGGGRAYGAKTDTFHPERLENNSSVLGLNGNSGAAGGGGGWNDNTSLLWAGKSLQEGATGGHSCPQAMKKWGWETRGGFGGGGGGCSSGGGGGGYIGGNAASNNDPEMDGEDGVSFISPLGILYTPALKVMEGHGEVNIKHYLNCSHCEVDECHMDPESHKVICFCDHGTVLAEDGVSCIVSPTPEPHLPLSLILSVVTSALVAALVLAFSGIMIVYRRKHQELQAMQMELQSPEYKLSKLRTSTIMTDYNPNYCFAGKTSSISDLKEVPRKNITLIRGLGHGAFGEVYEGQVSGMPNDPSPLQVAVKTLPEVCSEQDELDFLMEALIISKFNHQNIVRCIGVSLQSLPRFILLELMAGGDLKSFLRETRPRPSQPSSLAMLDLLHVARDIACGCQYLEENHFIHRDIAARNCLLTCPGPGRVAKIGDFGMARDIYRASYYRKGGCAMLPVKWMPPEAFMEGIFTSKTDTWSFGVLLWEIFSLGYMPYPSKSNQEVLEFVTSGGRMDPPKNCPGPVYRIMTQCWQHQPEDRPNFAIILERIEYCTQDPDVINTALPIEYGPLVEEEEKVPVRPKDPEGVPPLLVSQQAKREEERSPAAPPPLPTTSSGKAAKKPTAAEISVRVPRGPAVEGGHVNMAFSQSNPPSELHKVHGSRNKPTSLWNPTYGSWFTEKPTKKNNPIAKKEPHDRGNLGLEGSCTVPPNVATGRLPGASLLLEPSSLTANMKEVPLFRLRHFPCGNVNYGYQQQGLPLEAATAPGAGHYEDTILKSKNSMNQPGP
T2 sequence (Q16620 32-822): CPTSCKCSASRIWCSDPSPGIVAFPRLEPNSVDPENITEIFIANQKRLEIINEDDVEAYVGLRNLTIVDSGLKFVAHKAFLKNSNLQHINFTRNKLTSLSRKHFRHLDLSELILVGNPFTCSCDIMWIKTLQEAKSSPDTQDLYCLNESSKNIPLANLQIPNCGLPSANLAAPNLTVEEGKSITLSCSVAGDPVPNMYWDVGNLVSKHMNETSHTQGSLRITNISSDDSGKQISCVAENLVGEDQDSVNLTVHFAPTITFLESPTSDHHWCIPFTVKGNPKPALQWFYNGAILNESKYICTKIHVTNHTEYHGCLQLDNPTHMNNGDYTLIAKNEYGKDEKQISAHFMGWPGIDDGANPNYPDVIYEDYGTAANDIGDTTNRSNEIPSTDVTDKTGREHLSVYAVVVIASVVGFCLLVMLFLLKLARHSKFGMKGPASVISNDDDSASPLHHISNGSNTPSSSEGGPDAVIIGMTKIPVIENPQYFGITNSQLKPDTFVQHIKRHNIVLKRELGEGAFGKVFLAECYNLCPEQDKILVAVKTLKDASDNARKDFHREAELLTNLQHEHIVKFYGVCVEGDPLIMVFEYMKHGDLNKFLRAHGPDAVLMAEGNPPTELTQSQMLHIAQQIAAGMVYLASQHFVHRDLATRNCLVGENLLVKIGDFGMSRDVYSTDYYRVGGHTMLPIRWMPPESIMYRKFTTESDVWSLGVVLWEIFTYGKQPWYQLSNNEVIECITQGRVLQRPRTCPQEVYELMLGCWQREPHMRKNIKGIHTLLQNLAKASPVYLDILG
T3 sequence (Q9UM73 19-1620 F1174L): as the sequence (Q9UM73 19-1620) above, with F1156L counted along it
T4 sequence (Q9UM73 whole entry, change not shown, the tested form may be a part): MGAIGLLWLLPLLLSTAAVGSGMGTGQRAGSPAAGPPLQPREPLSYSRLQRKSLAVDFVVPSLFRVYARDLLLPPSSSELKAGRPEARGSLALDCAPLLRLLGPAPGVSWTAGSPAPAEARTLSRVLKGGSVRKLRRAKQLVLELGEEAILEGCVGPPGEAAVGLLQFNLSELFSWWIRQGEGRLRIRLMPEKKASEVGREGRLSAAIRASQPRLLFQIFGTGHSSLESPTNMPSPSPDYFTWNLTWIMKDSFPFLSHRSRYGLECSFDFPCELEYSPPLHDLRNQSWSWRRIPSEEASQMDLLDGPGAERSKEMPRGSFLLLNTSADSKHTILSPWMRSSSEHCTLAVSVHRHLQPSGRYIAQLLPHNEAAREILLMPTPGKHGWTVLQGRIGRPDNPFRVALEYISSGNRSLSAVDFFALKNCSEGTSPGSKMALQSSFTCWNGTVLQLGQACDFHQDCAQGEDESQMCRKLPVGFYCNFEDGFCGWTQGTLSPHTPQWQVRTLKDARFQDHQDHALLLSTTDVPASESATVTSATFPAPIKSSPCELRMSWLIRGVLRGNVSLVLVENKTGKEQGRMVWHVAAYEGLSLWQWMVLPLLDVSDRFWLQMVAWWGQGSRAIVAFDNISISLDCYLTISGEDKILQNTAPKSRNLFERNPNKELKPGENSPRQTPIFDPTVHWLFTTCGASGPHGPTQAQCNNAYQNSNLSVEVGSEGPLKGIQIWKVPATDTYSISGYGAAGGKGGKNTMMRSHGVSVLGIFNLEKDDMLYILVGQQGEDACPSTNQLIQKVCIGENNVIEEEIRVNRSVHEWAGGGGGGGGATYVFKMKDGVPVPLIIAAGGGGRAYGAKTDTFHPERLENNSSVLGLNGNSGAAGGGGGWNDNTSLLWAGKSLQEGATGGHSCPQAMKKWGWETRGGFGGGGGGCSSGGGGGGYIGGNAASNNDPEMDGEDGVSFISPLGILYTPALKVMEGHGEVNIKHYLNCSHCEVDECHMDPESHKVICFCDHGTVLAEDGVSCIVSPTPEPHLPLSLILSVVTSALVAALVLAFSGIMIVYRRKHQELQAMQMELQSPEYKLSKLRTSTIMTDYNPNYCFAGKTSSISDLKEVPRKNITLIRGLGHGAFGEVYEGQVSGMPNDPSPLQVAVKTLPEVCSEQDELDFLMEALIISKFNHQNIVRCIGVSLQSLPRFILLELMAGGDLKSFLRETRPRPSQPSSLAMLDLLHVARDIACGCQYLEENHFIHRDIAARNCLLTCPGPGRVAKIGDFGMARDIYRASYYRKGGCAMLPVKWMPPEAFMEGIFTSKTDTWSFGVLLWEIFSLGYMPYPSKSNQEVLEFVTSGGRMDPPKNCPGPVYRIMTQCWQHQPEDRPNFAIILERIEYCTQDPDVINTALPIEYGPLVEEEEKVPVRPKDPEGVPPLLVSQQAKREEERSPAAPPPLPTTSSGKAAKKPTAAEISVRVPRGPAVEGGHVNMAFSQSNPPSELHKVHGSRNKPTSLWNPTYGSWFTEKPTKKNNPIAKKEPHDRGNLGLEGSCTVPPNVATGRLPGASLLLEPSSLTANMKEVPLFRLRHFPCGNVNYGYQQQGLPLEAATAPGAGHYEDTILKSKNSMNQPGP

CN1CCN(c2ccc(C(=O)Nc3n[nH]c4cc(-c5ccc(O)cc5)c(Cc5cc(F)cc(F)c5)cc34)c(NC3CCOCC3)c2)CC1 [Example 3, N-[5-[(3,5-difluorophenyl)methyl]-6-(4-hydroxyphenyl)-1H-indazol-3-yl]-4-(4-methylpiperazin-1-yl)-2-(tetrahydropyran-4-ylamino)benzamide]
pIC50 [1]: 7.54 | pIC50 [2]: 7.06 | pIC50 [3]: 7.34 | inhibition at 0.2 µM ([4]; KARPAS-299, read-out: % Inhibition Karpas 299 cells): 93% | pIC50 ([4]; KARPAS-299, read-out: IC50 of cellular proliferation, Karpas299): 7.64 | GI50 [5]: 18 nM | pIC50 [6]: 4.77
